Source: the supplement of paper PMC10307832

Experiments:
Experiment in all cases: relative viability (nuclei count vs DMSO), 5 days (fraction); higher = more cells survive
AGI-6780 + Alpelisib = compound: O=C(Nc1cccc(C(F)(F)F)c1)Nc1cc(S(=O)(=O)NC2CC2)ccc1-c1ccsc1 [AGI-6780] + Cc1nc(NC(=O)N2CCC[C@H]2C(N)=O)sc1-c1ccnc(C(C)(C)C(F)(F)F)c1 [Alpelisib] (partner 2 µM)
Summary of the method: (§1)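 Lung cancer cell lines were pin-tool dosed in 1536-well plates on the day after seeding, with either a lone drug or a fixed anchor-drug dose plus five library-drug doses (not always all listed) in √10 steps. Nuclei were counted on 4× images after 5 days. Relative viability is the ratio of treated-well to vehicle-well nuclei counts, with each value a median of duplicate plates.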

AGI-6780 + Dasatinib = compound: O=C(Nc1cccc(C(F)(F)F)c1)Nc1cc(S(=O)(=O)NC2CC2)ccc1-c1ccsc1 [AGI-6780] + Cc1nc(Nc2ncc(C(=O)Nc3c(C)cccc3Cl)s2)cc(N2CCN(CCO)CC2)n1 [Dasatinib] (partner 0.075 µM)
Summary of the method: as §1

AGI-6780 + Palbociclib = compound: O=C(Nc1cccc(C(F)(F)F)c1)Nc1cc(S(=O)(=O)NC2CC2)ccc1-c1ccsc1 [AGI-6780] + CC(=O)c1c(C)c2cnc(Nc3ccc(N4CCNCC4)cn3)nc2n(C2CCCC2)c1=O [Palbociclib] (partner 0.5 µM)
Summary of the method: as §1

AGI-6780 + Bortezomib = compound: O=C(Nc1cccc(C(F)(F)F)c1)Nc1cc(S(=O)(=O)NC2CC2)ccc1-c1ccsc1 [AGI-6780] + CC(C)C[C@H](NC(=O)[C@H](Cc1ccccc1)NC(=O)c1cnccn1)B(O)O [Bortezomib] (partner 0.002 µM)
Summary of the method: as §1

Cell Line | relative viability (AGI-6780 + Alpelisib; first compound 0.08 µM) | relative viability (AGI-6780 + Alpelisib; first compound 0.253 µM) | relative viability (AGI-6780 + Alpelisib; first compound 0.8 µM) | relative viability (AGI-6780 + Alpelisib; first compound 8 µM) | relative viability (AGI-6780 + Dasatinib; first compound 0.08 µM) | relative viability (AGI-6780 + Dasatinib; first compound 0.253 µM) | relative viability (AGI-6780 + Dasatinib; first compound 0.8 µM) | relative viability (AGI-6780 + Dasatinib; first compound 8 µM) | relative viability (AGI-6780 + Palbociclib; first compound 0.08 µM) | relative viability (AGI-6780 + Palbociclib; first compound 0.253 µM) | relative viability (AGI-6780 + Palbociclib; first compound 0.8 µM) | relative viability (AGI-6780 + Palbociclib; first compound 8 µM) | relative viability (AGI-6780 + Bortezomib; first compound 0.08 µM) | relative viability (AGI-6780 + Bortezomib; first compound 0.253 µM) | relative viability (AGI-6780 + Bortezomib; first compound 0.8 µM) | relative viability (AGI-6780 + Bortezomib; first compound 2.53 µM) | relative viability (AGI-6780 + Bortezomib; first compound 8 µM) | relative viability (AGI-6780 + Alpelisib; first compound 2.53 µM) | relative viability (AGI-6780 + Dasatinib; first compound 2.53 µM) | relative viability (AGI-6780 + Palbociclib; first compound 2.53 µM)
LK-2 | 1.27 | 1.1 | 1.29 | 0.986 | 0.242 | 0.298 | 0.286 | 0.315 | 0.671 | 0.643 | 0.823 | 0.679 | – | – | – | – | – | – | – | –
Calu-6 | 1.01 | 0.977 | 0.97 | 1.04 | – | – | – | – | – | – | – | – | 1.12 | 0.976 | 1.02 | 1.12 | 0.972 | 0.945 | – | –
NCI-H1944 | 0.862 | 0.886 | 0.821 | 0.767 | 0.239 | 0.232 | 0.233 | 0.233 | 0.365 | 0.331 | 0.32 | 0.403 | – | – | – | – | – | 0.7 | – | –
NCI-H1299 | 1.02 | 1.04 | 0.971 | 1.02 | – | – | – | – | – | – | – | – | 1.06 | 1.03 | 0.944 | 1.02 | 1.03 | 1.09 | – | –
NCI-H596 | 0.6 | 0.501 | 0.455 | 0.516 | 0.582 | 0.583 | 0.624 | 0.665 | – | – | – | – | – | 1.04 | 0.761 | 0.918 | 1.13 | 0.427 | – | –
SK-MES-1 | 0.877 | 0.926 | 0.898 | 0.789 | 0.379 | 0.428 | 0.367 | 0.338 | 0.31 | 0.346 | 0.27 | 0.294 | – | – | – | – | – | 0.894 | 0.24 | 0.285
HCC-44 | 0.874 | 0.755 | 0.826 | 0.817 | – | – | – | – | 0.969 | 0.978 | 0.959 | 0.966 | 0.927 | 0.887 | 0.884 | 0.843 | 0.928 | 0.626 | – | 0.99
NCI-H1703 | 0.377 | 0.278 | 0.424 | 0.251 | – | – | – | – | – | – | – | – | 0.473 | 0.315 | 0.509 | 0.364 | 0.375 | 0.344 | – | –
NCI-H2170 | 0.813 | 0.838 | 0.86 | 0.772 | 0.585 | 0.713 | 0.579 | 0.59 | 0.393 | 0.421 | 0.43 | 0.376 | – | – | – | – | – | – | 0.499 | –
NCI-H358 | 0.896 | 0.906 | 0.835 | 0.721 | 0.184 | 0.175 | 0.17 | 0.197 | 0.129 | 0.131 | 0.119 | 0.154 | – | – | – | – | – | 0.63 | 0.151 | 0.138
NCI-H1650 | – | – | – | – | 0.337 | 0.371 | 0.38 | 0.366 | 0.297 | 0.456 | 0.447 | 0.432 | 0.181 | 0.196 | 0.216 | 0.206 | 0.183 | – | 0.274 | 0.442
ChaGo-K-1 | – | – | – | – | 0.612 | 0.543 | 0.576 | 0.642 | 0.951 | 0.968 | 0.921 | 0.898 | 0.772 | 1.02 | 1.08 | 1.01 | 0.932 | – | 0.524 | 0.921
IA-LM | 0.858 | 0.846 | 0.719 | 0.707 | – | – | – | – | – | – | – | – | 0.91 | 0.876 | 0.811 | 0.977 | 0.829 | 0.797 | – | –
